Our source for the 3 h FOB score values is the OligoGym collection.

HELM strings list units from the 5' end as sugar, base in round brackets, then linkage (d deoxyribose, r ribose, m 2'-O-methyl, p phosphodiester). Strings are as the collection lists them; they lack the last nucleoside at the 3' end of the tested compound. [moe] = 2'-O-(2-methoxyethyl) (MOE); [sp] = phosphorothioate linkage; [m5C] = 5-methylcytosine

The target in this series is SCN2A. As to the kind of experiment: mouse, dose not given. The conditions noted are these: ASO.
As to “RNA1{[moe](T)[sp].[moe](G)p.[moe](A)p.[moe]([m5C])p.[moe]([m5C])p.[moe](A)p.d([m5C])[sp].d(G)[sp].d([m5C])[sp].d(T)[sp].d(T)[sp].d(A)[sp].d([m5C])[sp].d(A)[sp].d(T)[sp].d([m5C])[sp].[moe](A)p.[moe](A)[sp].[moe](A)}$$$$ (last 3' nucleoside missing)”, the 3 h FOB score was 1 score 0-7.

Take “RNA1{[moe]([m5C])[sp].[moe](A)p.[moe](T)p.[moe](G)p.[moe](T)p.[moe](A)[sp].d(A)[sp].d([m5C])[sp].d([m5C])[sp].d(T)[sp].d(T)[sp].d(T)[sp].d(A)[sp].d(T)[sp].[moe](A)p.[moe]([m5C])[sp].[moe](A)}$$$$ (last 3' nucleoside missing)”: the 3 h FOB score stood at 0 score 0-7.

In turn, “RNA1{[moe](A)[sp].[moe](T)p.[moe](G)p.[moe](T)p.[moe](A)p.d(A)[sp].d([m5C])[sp].d([m5C])[sp].d(T)[sp].d(T)[sp].d(T)[sp].d(A)[sp].d(T)[sp].d(A)[sp].d([m5C])[sp].[moe](A)p.[moe](T)p.[moe](T)[sp].[moe](T)}$$$$ (last 3' nucleoside missing)” displayed a 3 h FOB score of 0 score 0-7.

“RNA1{[moe](A)[sp].[moe](T)p.[moe](G)p.[moe](T)p.d(A)[sp].d(A)[sp].d(T)[sp].d([m5C])[sp].d(A)[sp].d([m5C])[sp].d(T)[sp].d(T)[sp].d(T)[sp].d([m5C])[sp].[moe](A)p.[moe](T)p.[moe]([m5C])p.[moe]([m5C])[sp].[moe](A)}$$$$ (last 3' nucleoside missing)” displayed a 3 h FOB score of 0.33 score 0-7.

As to “RNA1{[moe]([m5C])[sp].[moe](T)p.[moe]([m5C])p.[moe](T)p.d(T)[sp].d(T)[sp].d([m5C])[sp].d(T)[sp].d(T)[sp].d(A)[sp].d(T)[sp].d(T)[sp].d(T)[sp].d([m5C])[sp].[moe](T)p.[moe](G)p.[moe](T)p.[moe](T)[sp].[moe](T)}$$$$ (last 3' nucleoside missing)”, the 3 h FOB score amounted to 0 score 0-7.

Regarding “RNA1{[moe]([m5C])[sp].[moe]([m5C])p.[moe](G)p.[moe](A)p.[moe](A)p.d(T)[sp].d(T)[sp].d([m5C])[sp].d(T)[sp].d(A)[sp].d(T)[sp].d(T)[sp].d(T)[sp].d(T)[sp].d(A)[sp].[moe](T)p.[moe](A)p.[moe](A)[sp].[moe](A)}$$$$ (last 3' nucleoside missing)”, the 3 h FOB score amounted to 0.67 score 0-7.

As to “RNA1{[moe](T)[sp].[moe](T)p.[moe]([m5C])p.[moe](T)p.d(A)[sp].d(T)[sp].d(T)[sp].d(T)[sp].d(T)[sp].d(A)[sp].d(T)[sp].d(A)[sp].d(A)[sp].d(A)[sp].[moe](T)p.[moe](G)p.[moe]([m5C])p.[moe]([m5C])[sp].[moe](G)}$$$$ (last 3' nucleoside missing)”, the 3 h FOB score turned out to be 1 score 0-7.

As for “RNA1{[moe]([m5C])[sp].[moe](A)p.[moe](T)p.[moe](G)p.[moe]([m5C])p.d(A)[sp].d(T)[sp].d(A)[sp].d(A)[sp].d(T)[sp].d([m5C])[sp].d([m5C])[sp].d([m5C])[sp].d(A)[sp].d(T)[sp].[moe](T)p.[moe](A)p.[moe](T)[sp].[moe](A)}$$$$ (last 3' nucleoside missing)”, the 3 h FOB score turned out to be 0 score 0-7.

As for “RNA1{[moe]([m5C])[sp].[moe](G)p.[moe](A)p.[moe](A)p.d(T)[sp].d(T)[sp].d([m5C])[sp].d(T)[sp].d(A)[sp].d(T)[sp].d(T)[sp].d(T)[sp].d(T)[sp].d(A)[sp].[moe](T)p.[moe](A)p.[moe](A)p.[moe](A)[sp].[moe](T)}$$$$ (last 3' nucleoside missing)”, the 3 h FOB score was determined as 1 score 0-7.

The substance “RNA1{[moe]([m5C])[sp].[moe](A)p.[moe](T)p.[moe](G)p.d(T)[sp].d(A)[sp].d(A)[sp].d([m5C])[sp].d([m5C])[sp].d(T)[sp].d(T)[sp].d(T)[sp].d(A)[sp].d(T)[sp].[moe](A)p.[moe]([m5C])p.[moe](A)p.[moe](T)[sp].[moe](T)}$$$$ (last 3' nucleoside missing)” had a 3 h FOB score of 0 score 0-7.

“RNA1{[moe]([m5C])[sp].[moe](A)p.[moe]([m5C])p.[moe](G)p.[moe]([m5C])p.d(T)[sp].d(T)[sp].d(A)[sp].d([m5C])[sp].d(A)[sp].d(T)[sp].d([m5C])[sp].d(A)[sp].d(A)[sp].d(A)[sp].[moe]([m5C])p.[moe](A)p.[moe](T)[sp].[moe]([m5C])}$$$$ (last 3' nucleoside missing)” displayed a 3 h FOB score of 0 score 0-7.

The substance “RNA1{[moe](G)[sp].[moe](T)p.[moe](A)p.[moe](A)p.[moe]([m5C])p.[moe]([m5C])p.d(T)[sp].d(T)[sp].d(T)[sp].d(A)[sp].d(T)[sp].d(A)[sp].d([m5C])[sp].d(A)[sp].d(T)[sp].d(T)[sp].[moe](T)p.[moe](A)[sp].[moe](A)}$$$$ (last 3' nucleoside missing)” registered a 3 h FOB score of 0 score 0-7.

The substance “RNA1{[moe](G)[sp].[moe](T)p.[moe](T)p.[moe](T)p.d(T)[sp].d(T)[sp].d(T)[sp].d([m5C])[sp].d(A)[sp].d(T)[sp].d(T)[sp].d(G)[sp].d([m5C])[sp].d(A)[sp].[moe](T)p.[moe]([m5C])p.[moe]([m5C])p.[moe](T)[sp].[moe]([m5C])}$$$$ (last 3' nucleoside missing)” came in with a 3 h FOB score of 1 score 0-7.

Turning to “RNA1{[moe](G)[sp].[moe]([m5C])p.[moe](A)p.[moe](T)p.d(G)[sp].d(T)[sp].d(A)[sp].d(A)[sp].d([m5C])[sp].d([m5C])[sp].d(T)[sp].d(T)[sp].d(T)[sp].d(A)[sp].[moe](T)p.[moe](A)p.[moe]([m5C])p.[moe](A)[sp].[moe](T)}$$$$ (last 3' nucleoside missing)”, the 3 h FOB score stood at 0 score 0-7.

“RNA1{[moe](G)[sp].[moe](T)p.[moe]([m5C])p.[moe](T)p.d([m5C])[sp].d(T)[sp].d(T)[sp].d(T)[sp].d([m5C])[sp].d(T)[sp].d(T)[sp].d(A)[sp].d(T)[sp].d(T)[sp].[moe](T)p.[moe]([m5C])p.[moe](T)p.[moe](G)[sp].[moe](T)}$$$$ (last 3' nucleoside missing)” returned a 3 h FOB score of 0 score 0-7.

As for “RNA1{[moe](A)[sp].[moe](T)p.[moe](G)p.[moe](T)p.[moe](A)p.[moe](A)p.d(T)[sp].d([m5C])[sp].d(A)[sp].d([m5C])[sp].d(T)[sp].d(T)[sp].d(T)[sp].d([m5C])[sp].d(A)[sp].d(T)[sp].[moe]([m5C])p.[moe]([m5C])[sp].[moe](A)}$$$$ (last 3' nucleoside missing)”, the 3 h FOB score was 0 score 0-7.

For the substance “RNA1{[moe]([m5C])[sp].[moe](T)p.[moe](G)p.[moe]([m5C])[sp].d(A)[sp].d(T)[sp].d(G)[sp].d(T)[sp].d(A)[sp].d(A)[sp].d([m5C])[sp].d([m5C])[sp].[moe](T)p.[moe](T)p.[moe](T)p.[moe](A)[sp].[moe](T)}$$$$ (last 3' nucleoside missing)”, the 3 h FOB score stood at 1 score 0-7.

“RNA1{[moe]([m5C])[sp].[moe](G)p.[moe](A)p.[moe](A)p.[moe](T)p.d(T)[sp].d([m5C])[sp].d(T)[sp].d(A)[sp].d(T)[sp].d(T)[sp].d(T)[sp].d(T)[sp].d(A)[sp].d(T)[sp].[moe](A)p.[moe](A)p.[moe](A)[sp].[moe](T)}$$$$ (last 3' nucleoside missing)” gave a 3 h FOB score of 1.67 score 0-7.

On to “RNA1{[moe]([m5C])[sp].[moe](A)p.[moe](G)p.[moe](T)p.d(T)[sp].d(T)[sp].d(T)[sp].d(T)[sp].d(T)[sp].d([m5C])[sp].d(A)[sp].d(T)[sp].d(T)[sp].d(G)[sp].[moe]([m5C])p.[moe](A)p.[moe](T)p.[moe]([m5C])[sp].[moe]([m5C])}$$$$ (last 3' nucleoside missing)”, for which the 3 h FOB score was found to be 2 score 0-7.

The substance “RNA1{[moe](T)[sp].[moe](T)p.[moe]([m5C])p.[moe](T)p.[moe](G)p.d([m5C])[sp].d(A)[sp].d(T)[sp].d(G)[sp].d(T)[sp].d(A)[sp].d(A)[sp].d([m5C])[sp].d([m5C])[sp].d(T)[sp].[moe](T)p.[moe](T)p.[moe](A)[sp].[moe](T)}$$$$ (last 3' nucleoside missing)” displayed a 3 h FOB score of 1 score 0-7.

“RNA1{[moe](G)[sp].[moe](T)p.[moe](T)p.[moe]([m5C])p.[moe]([m5C])p.d(A)[sp].d(T)[sp].d(T)[sp].d(A)[sp].d(A)[sp].d(A)[sp].d([m5C])[sp].d(T)[sp].d(A)[sp].d(A)[sp].[moe](G)p.[moe](G)p.[moe]([m5C])[sp].[moe](T)}$$$$ (last 3' nucleoside missing)” showed a 3 h FOB score of 1 score 0-7.

In turn, “RNA1{[moe](A)[sp].[moe](T)p.[moe](T)p.[moe](T)p.d([m5C])[sp].d(T)[sp].d(A)[sp].d(T)[sp].d(A)[sp].d(A)[sp].d([m5C])[sp].d(T)[sp].d([m5C])[sp].d(A)[sp].[moe](G)p.[moe]([m5C])p.[moe](A)p.[moe](A)[sp].[moe]([m5C])}$$$$ (last 3' nucleoside missing)” returned a 3 h FOB score of 0 score 0-7.

The substance “RNA1{[moe](A)[sp].[moe]([m5C])p.[moe](A)p.[moe](T)p.[moe](A)p.d(T)[sp].d(T)[sp].d(T)[sp].d(T)[sp].d(T)[sp].d([m5C])[sp].d(T)[sp].d(A)[sp].d([m5C])[sp].d(A)[sp].[moe]([m5C])p.[moe](T)p.[moe](G)[sp].[moe]([m5C])}$$$$ (last 3' nucleoside missing)” came in with a 3 h FOB score of 0 score 0-7.

“RNA1{[moe]([m5C])[sp].[moe](A)p.[moe](T)p.[moe](G)p.[moe](T)[sp].d(A)[sp].d(A)[sp].d([m5C])[sp].d([m5C])[sp].d(T)[sp].d(T)[sp].d(T)[sp].d(A)[sp].[moe](T)p.[moe](A)p.[moe]([m5C])[sp].[moe](A)}$$$$ (last 3' nucleoside missing)” returned a 3 h FOB score of 0 score 0-7.

In the case of “RNA1{[moe]([m5C])[sp].[moe](A)p.[moe](G)p.[moe]([m5C])p.[moe](A)p.[moe](T)p.d(A)[sp].d(T)[sp].d(T)[sp].d([m5C])[sp].d(T)[sp].d(A)[sp].d(A)[sp].d([m5C])[sp].d(A)[sp].d(T)[sp].[moe](G)p.[moe](G)[sp].[moe](T)}$$$$ (last 3' nucleoside missing)”, the 3 h FOB score is 0 score 0-7.
